# Measured values: ChEMBL document CHEMBL5370600, “Oxindole and Benzoxazinone Alkaloids from the Seeds of Persea americana (Avocado) and Their SIRT1 Stimulatory Activity” (J Nat Prod, 2023)
# Calls of active or inactive are those of the source. The calls are words filed in the database; no cut-off is given here.
# Columns and labels:
# HEK293 = assay: Cytotoxicity against HEK293 cells at 20 uM incubated for 24 hrs by MTT assay; format: toxicity, cell-based; conditions: human, hek293, 24 h
# [1] = biological target: T1, NAD-dependent protein deacetylase sirtuin-1 (Homo sapiens) (UniProt Q96EB6); assay: Activation of SIRT1 deacetylation (unknown origin) transfected in HEK293 cells cotransfected with PG13-Luc/myc-tagged p53/flag-tagged Sirt1/RSV-beta-galactosidase assessed as decrease in luciferase activity at 20 uM incubated for 24 hrs by firefly luciferase assay relative to control; format: cell-based; design: scale not given: the % may be the effect or the level left; conditions: filed as activator
# T1 sequence (whole entry): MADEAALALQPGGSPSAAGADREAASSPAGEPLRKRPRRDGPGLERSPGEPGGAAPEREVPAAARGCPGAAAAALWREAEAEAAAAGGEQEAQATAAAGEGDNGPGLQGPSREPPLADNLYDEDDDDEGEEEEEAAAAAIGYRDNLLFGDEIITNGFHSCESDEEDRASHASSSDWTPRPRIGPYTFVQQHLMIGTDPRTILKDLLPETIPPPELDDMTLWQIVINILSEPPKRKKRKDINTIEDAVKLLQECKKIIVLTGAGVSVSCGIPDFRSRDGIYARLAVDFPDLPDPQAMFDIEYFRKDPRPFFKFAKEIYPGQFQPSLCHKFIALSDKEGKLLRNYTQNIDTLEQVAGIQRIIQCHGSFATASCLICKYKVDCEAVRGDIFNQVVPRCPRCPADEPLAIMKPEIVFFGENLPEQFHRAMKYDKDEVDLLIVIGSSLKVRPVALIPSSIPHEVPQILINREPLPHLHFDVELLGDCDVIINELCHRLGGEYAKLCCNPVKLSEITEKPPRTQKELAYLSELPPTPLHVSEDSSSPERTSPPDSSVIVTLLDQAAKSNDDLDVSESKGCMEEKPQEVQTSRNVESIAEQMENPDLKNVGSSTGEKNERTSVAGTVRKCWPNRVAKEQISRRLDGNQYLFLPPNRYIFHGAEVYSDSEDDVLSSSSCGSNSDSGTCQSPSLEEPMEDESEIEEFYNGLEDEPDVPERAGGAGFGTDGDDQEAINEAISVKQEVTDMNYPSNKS
# [2] = biological target: T1, NAD-dependent protein deacetylase sirtuin-1 (Homo sapiens); assay: Activation of SIRT1 deacetylation (unknown origin) transfected in HEK293 cells cotransfected with PG13-Luc/myc-tagged p53/flag-tagged Sirt1/RSV-beta-galactosidase assessed as decrease in luciferase activity incubated for 24 hrs by firefly luciferase assay; format: cell-based; conditions: filed as activator, dose 10-20 µM
# [3] = biological target: T1, NAD-dependent protein deacetylase sirtuin-1 (Homo sapiens); assay: Activation of SIRT1 deacetylation (unknown origin) transfected in HEK293 cells cotransfected with PG13-Luc/myc-tagged p53/flag-tagged Sirt1/RSV-beta-galactosidase assessed as decrease in luciferase activity at 10 uM incubated for 24 hrs by firefly luciferase assay; format: cell-based
# [4] = biological target: T1, NAD-dependent protein deacetylase sirtuin-1 (Homo sapiens); assay: Activation of SIRT1 deacetylation (unknown origin) in flag tagged Sirt1 overexpressed HEK293 cells assessed as increase in NAD+/NADH ratio incubated for 12 hrs by fluorescence microplate reader analysis; format: cell-based; conditions: filed as activator, dose 10-20 µM
Compound,Activity (HEK293),further results
OC[C@@H](O)[C@@H](O)[C@H](O)[C@H](O)[C@@H](O)CO,Non-Toxic,
O=C(C[C@]1(O)C(=O)Nc2ccccc21)OC[C@H]1O[C@@H](OCCc2ccc(O)cc2)[C@H](O)[C@@H](O)[C@@H]1O,Non-Toxic,
O=C(/C=C1/C(=O)Nc2ccccc21)OC[C@H]1O[C@@H](OCCc2ccc(O)cc2)[C@H](O)[C@@H](O)[C@@H]1O,Non-Toxic,
O=C(C[C@@H]1C(=O)Nc2ccccc21)OC[C@H]1O[C@@H](OCCc2ccc(O)c(O)c2)[C@H](O)[C@@H](O)[C@@H]1O,Non-Toxic,
CC1=CC[C@@H](C(C)(C)O[C@@H]2O[C@H](CO)[C@@H](O)[C@H](O)[C@H]2O)CC1,Non-Toxic,
CO[C@@]1(CC(=O)OC[C@H]2O[C@@H](OCCc3ccc(O)cc3)[C@H](O)[C@@H](O)[C@@H]2O)OC(=O)Nc2ccccc21,Non-Toxic,
O=C(C[C@@H]1C(=O)Nc2ccccc21)OC[C@H]1O[C@@H](OCCc2ccc(O)cc2)[C@H](O)[C@@H](O)[C@@H]1O,Non-Toxic,Activity [1]: 45%; Activity [2]: Dose-Dependent Effect; Activity ([3]; filed as activator): Active; Activity [4]: Dose-Dependent Effect
O=C(C[C@@]1(O)C(=O)Nc2ccccc21)OC[C@H]1O[C@@H](OCCc2ccc(O)cc2)[C@H](O)[C@@H](O)[C@@H]1O,Non-Toxic,
CO[C@]1(CC(=O)OC[C@H]2O[C@@H](OCCc3ccc(O)cc3)[C@H](O)[C@@H](O)[C@@H]2O)OC(=O)Nc2ccccc21,Non-Toxic,
O=C(C[C@H]1C(=O)Nc2ccccc21)OC[C@H]1O[C@@H](OCCc2ccc(O)c(O)c2)[C@H](O)[C@@H](O)[C@@H]1O,Non-Toxic,
O=C(C[C@H]1C(=O)Nc2ccccc21)OC[C@H]1O[C@@H](OCCc2ccc(O)cc2)[C@H](O)[C@@H](O)[C@@H]1O,Non-Toxic,Activity [1]: 65%; Activity [3]: inactive
